Drawing on PubChem BioAssay (NCI), this text covers GI50 and TGI for 8 compounds.

Common to all, as to assay: NCI anticancer screen, dose series, 48 h
Assay [1] relates to OVCAR-8 ovarian.
The subject of assay [2] is HCT-15 colon.
Assay [3] deals with UACC-62 melanoma.
For assay [4], the system named is MOLT-4 leukemia.
Assay [5] concerns MCF7 breast.
Assay [6] deals with SNB-75 CNS.
Assay [7] deals with RPMI-8226 leukemia.
For assay [8], the system named is SK-MEL-2 melanoma.
Assay [9] has as its system TK-10 renal.
Assay [10] deals with SF-539 CNS.

Where “and” joins values, the source holds several entries; their conditions need not be identical. Identical values can stand only once.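 These data come from cells grown in 96-well plates and exposed to compound for 48 hours at five concentrations. GI50 = concentration required for 50% inhibition of growth. TGI denotes the concentration required for complete inhibition of growth.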

Regarding `CCOC(=O)c1sc(NC(=O)COc2ccc(/C=C3\CCc4cc(OC)ccc4C3=O)cc2)nc1C`, the GI50 in assay [1] was 9.5 µM; in assay [2] it was 7.96 µM; in [3] it was 11.3 µM; in [4], 1.76 µM; in assay [5], 9.43 µM; in [6], 6.73 µM. The GI50 in [7] was 0.684 µM; in [8], 5.61 µM; in assay [9], 3.34 µM; in assay [10], 11.7 µM. For the same compound, the TGI worked out at 34.7 µM in assay [1]; 21.1 µM in assay [2]; 23.4 µM in [3]; 15.3 µM in [4]; 23 µM in assay [5]; 24.3 µM in [6]. The TGI in [7] amounted to 6.64 µM; in assay [8] it was 21.6 µM; in [9], 21.4 µM; in assay [10] it was 23.9 µM.

As for `CN(C)CCN=c1nc2c(c(N)n1-c1ccccc1)c(=S)n(-c1ccccc1)c(=S)n2-c1ccccc1`, the GI50 in assay [1] is 4.76 µM; in assay [2], 1.17 µM; in [3], 1.78 µM; in [4] it was 2.79 µM; in [5], 1.9 µM; in assay [6], 2.3 µM. Moreover, the GI50 is 0.587 µM in assay [7], 1.73 µM in assay [8], 2.36 µM in [9] and 1.68 µM in assay [10]. Further, the TGI in assay [1] was 17.6 µM; in assay [2] it was 3.73 µM; in assay [3] it was 3.41 µM; in assay [4] it was over 21.6 µM; in assay [5], 7.39 µM; in assay [6] it was 7.27 µM. Further, the TGI in [8] amounted to 3.4 µM; in assay [9], 10.1 µM; in assay [10] it was 3.29 µM.

For `COc1ccc2c(CN3CCCC[C@H]3O)cc3cc4c(cc3c2c1)OCO4`, the GI50 in assay [1] is 0.268 µM; in [2], 0.369 µM; in [3], 0.247 µM; in assay [4] it was 0.283 µM; in assay [5], 0.314 µM; in assay [6], 0.5 µM. The GI50 in assay [7] was 0.298 µM; in assay [8], 0.291 µM; in assay [9], 0.702 µM; in assay [10], 0.375 µM. Further, the TGI in assay [1] is 3.94 µM; in assay [2], 10.6 µM; in [3] it was 0.712 µM; in assay [4] it was 4.55 µM; in [5] it was 3.22 µM; in assay [6], 1.86 µM. The TGI in [7] worked out at 1.32 µM; in assay [8], 0.889 µM; in assay [9] it was 6.97 µM; in assay [10] it was 1.83 µM.

For `CN(Cc1cnc2nc(N)nc(N)c2n1)c1c(Cl)cc(C(=O)NC(CCC(=O)O)C(=O)O)cc1Cl` (centres undefined), the GI50 in assay [1] was under 0.01 µM; in [2] it was under 0.01 µM; in [3], under 0.0106 µM; in [4], under 0.0201 µM; in [5] it was under 0.01 µM; in assay [6], 0.173 µM. The GI50 was under 0.01 µM in assay [7], over 100 µM in assay [8], 1.88 µM in assay [9] and under 0.01 µM in [10]. Moreover, the TGI in assay [1], in assay [2], in assay [3], in [4], in [5] and in [6] was over 100 µM throughout. The TGI in [7], in assay [8], in assay [9] and in [10] was over 100 µM in each case.

Turning to `CCS(=O)(=O)c1cccc(-c2cc(C(=O)NC3CCN(C)CC3)c(C)c3[nH]c4ncc(C)cc4c23)c1`, the GI50 in [1] is 1.58 µM and 0.855 µM; in [2], 13.6 µM; in assay [3], 0.452 µM and 0.372 µM; in assay [4], 0.316 µM and 0.237 µM; in assay [5], 0.105 µM and 0.0631 µM; in [6] it was 0.101 µM and 0.0804 µM. Further, the GI50 in assay [7] was 0.736 µM and 0.929 µM; in [8], 0.694 µM and 0.673 µM; in assay [9], 1.71 µM and 1.44 µM; in assay [10], 0.329 µM and 0.239 µM. Moreover, the TGI in [1] is > 10 µM and 11.1 µM; in assay [2] it was > 10 µM and 45.8 µM; in [3] it was 2.13 µM and 2.09 µM; in assay [4] it was > 6.38 µM and 3.14 µM; in assay [5] it was 4.27 µM and 5.96 µM; in assay [6] it was 0.459 µM and 0.264 µM. Besides, the TGI was > 7.51 µM and 9.07 µM in assay [7]; 3.07 µM and 3.38 µM in [8]; > 8.01 µM and 6.7 µM in assay [9]; 1.92 µM and 1.39 µM in assay [10].

As to `CSCc1ncc(-c2ccc(C(F)(F)F)cc2)c(NC2CCCCCC2)n1`, the GI50 in [1], in assay [2], in assay [3], in assay [4], in [5] and in assay [6] was over 10 µM throughout. Besides, the GI50 in [7], in assay [8], in assay [9] and in [10] was over 10 µM each time. Moreover, the TGI in [1], in assay [2], in [3], in [4], in [5] and in assay [6] was over 10 µM each time. Also, the TGI in [7], in assay [8], in assay [9] and in assay [10] was over 10 µM each time.

Take `Cc1cc(C)nc(NC(=O)COc2ccc(Cl)cc2)c1`: the TGI in assay [1], in [2], in assay [3], in assay [4], in [5] and in assay [6] was over 100 µM throughout. In addition, the TGI in assay [7], in assay [8], in assay [9] and in assay [10] was over 100 µM throughout.

For the compound `COc1ccc(N=c2nc3sc4cc(Cl)ccc4n3c(N)c2C#N)cc1`, the GI50 in [1] was 5.05 µM; in [2], 5.59 µM; in [3], 3.35 µM; in assay [4], 7.74 µM; in [5], 1.92 µM; in assay [6], 3.4 µM. Moreover, the GI50 was 25 µM in assay [7], 2.8 µM in assay [8], 4.61 µM in assay [9] and 9.71 µM in assay [10]. For the same compound, the TGI in [1] was over 100 µM; in [2] it was over 31.1 µM; in [3] it was over 38.5 µM; in [4], over 76.5 µM; in [5], 21.5 µM; in assay [6], over 100 µM. The TGI in [7] was over 72.6 µM; in assay [8] it was 34.7 µM; in assay [9], 45.5 µM; in [10], over 100 µM.
